From BindingDB's records for PubMed 35239336 (Pharmaron Beijing Co., Ltd., 2022)

Experiment: Inhibition of MK-499 binding to hERG

| Compound | IC50 |
| --- | --- |
| O=C(Nc1ccc(F)cc1)C1(c2ccc(-c3cnc(C(F)(F)F)cc3CO)cc2)CC(F)(F)C1 | 6.1 µM |
| Cc1cc(C2CC2)ncc1-c1ccc(C2(C(=O)Nc3ccc(F)cc3)COC2)cc1 | 15.9 µM |
| O=C(Nc1ccc(F)cc1)C1(c2ccc(-c3ccc(C4CC4)nc3)cc2)COC1 | 13.5 µM |
| Cc1cc(C(F)(F)F)ncc1-c1ccc(C2(C(=O)Nc3ccc(F)cc3)COC2)cc1 | 2.23 µM |
| CC(C)(O)c1cc(C(F)(F)F)ncc1-c1ccc(C2(C(=O)Nc3ccc(F)cc3)COC2)cc1 | 21.3 µM |
